Several values for one entry are separate records, joined by “and”; a condition that tells them apart may be missing. Equal entries are not always repeated. Entries after “also recorded” stand apart in the source; their conditions may differ.
Experiments:
ICR mice [1] = assay: Phenylquinone-induced writhing model in mice (Example 16); type: in vivo; conditions: IP; for No. of Writhings Individual: individual mice
Experimental: KRS-5-150 was evaluated for possible analgesic activity in the phenylquinone-induced writhing model in mice (Siegmund et al, 1957). A serial 2-fold dosage variance was used in the test, from 128 mg/kg to 1 mg/kg (8 doses in total). Groups of 3 male or female ICR mice weighing 22±2 g were employed. A serial 2-fold dosage variance was used in the test (8 doses in total). Variant doses (1, 2, 4, 8, 16, 32, 64 and 128 mg/kg) of test substances were administered intraperitoneally (IP). A vehicle of 2% Tween 80 in 0.9% NaCl was used for the intraperitoneal injection. The control group received vehicle alone. […] A reduction in the number of writhes by 50 percent or more (≧50%) relative to the vehicle-treated group indicated possible analgesic activity.

ICR-derived mice = assay: Phenylquinone-induced writhing assay in mice, IP and oral (Example 17); type: in vivo; conditions: for % Inhibition / Number of Writhings Average / Number of Writhings Individual: Table 2; for Number of Writhings Individual: individual mice; for Died (mortality, animals of group of 3): within 30 minutes after administration
Experimental: Further testing on compound KRS-5–150 was carried out under contract by MDS Pharma Services—Taiwan Ltd. The study was designed to evaluate the effects of the compound as an analgesic in the phenylquinone-induced writhing assay, which was described in the previous example, and in the radiant heat-induced tail-flick response assay in mice (D'Amour et al., 1941).
For the phenylquinone writhing test, groups of three male or female ICR-derived mice weighing 22±2 g were used. For the phenylquinone writhing test, KRS-5-150 at doses of 1, 2, 4, 8, 16, 32, 64 and 128 mg/kg in either 2% Tween 80/0.9% NaCl or in 2% Tween 80 was used for intraperitoneal administration, or at doses of 1, 2, 4, 8, 16, 32 or 64 mg/kg in the same vehicles for oral administration. Control animals received vehicle alone. […] A reduction in the number of writhes by 50% or more (≧50%) relative to the vehicle-treated group indicated possible analgesic activity.

human δ-opiate receptor = target: T1, human δ-opiate receptor (Homo sapiens, UniProt P41143); assay: In vitro opiate receptor radioligand binding assay, δ; conditions: test compound 10 μM
T1 construct: purchased MDS Pharma Services 260110
T1 sequence (P41143 whole entry): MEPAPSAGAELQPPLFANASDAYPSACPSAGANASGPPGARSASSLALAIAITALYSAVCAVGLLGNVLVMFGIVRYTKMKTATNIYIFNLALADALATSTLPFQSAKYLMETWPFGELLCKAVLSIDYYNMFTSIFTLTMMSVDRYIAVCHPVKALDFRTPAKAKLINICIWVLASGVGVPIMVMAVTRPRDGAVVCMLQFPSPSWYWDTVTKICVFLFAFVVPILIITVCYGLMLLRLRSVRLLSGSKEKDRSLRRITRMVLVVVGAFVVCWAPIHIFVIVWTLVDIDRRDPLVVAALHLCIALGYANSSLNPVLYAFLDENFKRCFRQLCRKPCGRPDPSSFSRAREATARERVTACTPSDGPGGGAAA
Experimental: (§1) To characterise the target specificity of the compounds, KRS-5-150 and KRS-6-26 were tested at a concentration of 10 μM for their ability to inhibit the binding of a radioligand to human δ-, κ-, or μ-opiate receptors in vitro using commercially available assays (MDS Pharma Services; assay catalogue numbers 260110, 260210 and 260410 respectively).
(§2) Percentage inhibition of radioligand binding to human opioid receptors in vitro by test compounds (10 μM)

human κ-opiate receptor = target: T2, human κ-opiate receptor (Homo sapiens, UniProt P41145); assay: In vitro opiate receptor radioligand binding assay, κ; conditions: test compound 10 μM
T2 construct: purchased MDS Pharma Services 260210
T2 sequence (P41145 whole entry): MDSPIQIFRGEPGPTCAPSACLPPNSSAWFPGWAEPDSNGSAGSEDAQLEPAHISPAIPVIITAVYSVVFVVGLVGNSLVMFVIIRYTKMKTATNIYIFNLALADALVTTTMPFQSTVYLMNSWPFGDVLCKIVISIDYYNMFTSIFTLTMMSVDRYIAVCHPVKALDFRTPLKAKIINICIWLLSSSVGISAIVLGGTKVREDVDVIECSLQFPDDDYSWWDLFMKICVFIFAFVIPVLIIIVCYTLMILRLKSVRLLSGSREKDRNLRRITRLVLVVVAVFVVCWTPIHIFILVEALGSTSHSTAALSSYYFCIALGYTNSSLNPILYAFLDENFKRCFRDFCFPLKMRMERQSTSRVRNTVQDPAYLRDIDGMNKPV
Experimental: as §1, §2

human μ-opiate receptor = target: T3, human μ-opiate receptor (Homo sapiens, UniProt P35372); assay: In vitro opiate receptor radioligand binding assay, μ; conditions: test compound 10 μM
T3 construct: purchased MDS Pharma Services 260410
T3 sequence (P35372 whole entry): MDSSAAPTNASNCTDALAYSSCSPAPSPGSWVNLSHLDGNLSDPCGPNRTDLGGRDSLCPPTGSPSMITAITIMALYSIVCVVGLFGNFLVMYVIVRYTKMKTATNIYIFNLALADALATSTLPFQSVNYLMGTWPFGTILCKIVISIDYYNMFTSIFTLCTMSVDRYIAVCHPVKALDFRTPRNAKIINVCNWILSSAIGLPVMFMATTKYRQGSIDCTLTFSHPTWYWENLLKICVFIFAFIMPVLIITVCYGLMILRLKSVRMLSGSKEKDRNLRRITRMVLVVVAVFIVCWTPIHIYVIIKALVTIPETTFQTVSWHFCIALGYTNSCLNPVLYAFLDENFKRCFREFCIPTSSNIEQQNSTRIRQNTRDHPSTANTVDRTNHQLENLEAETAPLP
Experimental: as §1, §2

ICR mice [2] = assay: Straub tail behaviour (indicator of CNS activity) and observed signs in test animals
Excerpt: The Straub test is an indicator of CNS activity.
The tail-flick test is thought to involve central nervous system activity, and therefore provides further confirmation of the Straub tail test.

Structure (SMILES): Oc1ccc2c3c1O[C@H]1[C@@H](O)C=C[C@H]4[C@@H](C2)N(CCCNC(=Nc2ccccc2)Nc2ccccc2)CC[C@@]341 [KRS-5-150, (5α,6α)-7,8 didehydro-4,5-epoxy-17-(N,N′-bisphenylcarboxamidino-3-aminopropyl)morphinan,3,6-diol]
- % Inhibition (ICR mice [1]; 1 mg/kg, Table 1): 33%
- No. of Writhings Average (ICR mice [1]; 1 mg/kg, Table 1): 10
- No. of Writhings Individual (ICR mice [1]; 1 mg/kg, Table 1): 14 and 0 and 16
- % Inhibition (ICR mice [1]; 2 mg/kg, Table 1): 73%
- No. of Writhings Average (ICR mice [1]; 2 mg/kg, Table 1): 4
- No. of Writhings Individual (ICR mice [1]; 2 mg/kg, Table 1): 8 and 1 and 4
- % Inhibition (ICR mice [1]; 4 mg/kg, Table 1): 80%
- No. of Writhings Average (ICR mice [1]; 4 mg/kg, Table 1): 3
- No. of Writhings Individual (ICR mice [1]; 4 mg/kg, Table 1): 0 and 7 and 3
- % Inhibition (ICR mice [1]; 8 mg/kg, Table 1): 87%
- No. of Writhings Average (ICR mice [1]; 8 mg/kg, Table 1): 2
- No. of Writhings Individual (ICR mice [1]; 8 mg/kg, Table 1): 4 and 0 and 2
- % Inhibition (ICR mice [1]; 16 mg/kg, Table 1): 80%
- No. of Writhings Average (ICR mice [1]; 16 mg/kg, Table 1): 3
- No. of Writhings Individual (ICR mice [1]; 16 mg/kg, Table 1): 0 and 4 and 5
- % Inhibition (ICR mice [1]; 32 mg/kg, Table 1): 100%
- No. of Writhings Average (ICR mice [1]; 32 mg/kg, Table 1): 0
- No. of Writhings Individual (ICR mice [1]; 32 mg/kg, Table 1): 0 (2×) and 1
- % Inhibition (ICR mice [1]; 64 mg/kg, Table 1): 100%
- No. of Writhings Average (ICR mice [1]; 64 mg/kg, Table 1): 0
- No. of Writhings Individual (ICR mice [1]; 64 mg/kg, Table 1): 0
- died (animals of group of 3) (ICR mice [1]; 128 mg/kg, Table 1): 2/3 died
- No. of Writhings Individual (ICR mice [1]; 128 mg/kg, Table 1): 0
- analgesic activity (≧50% reduction in writhes) (ICR mice [1]; doses of 64, 32, 16, 8, 4 and 2 mg/kg): Significant activity
- % Inhibition (ICR-derived mice; IP, 1 mg/kg): 13%
- Number of Writhings Average (ICR-derived mice; IP, 1 mg/kg): 14
- Number of Writhings Individual (ICR-derived mice; IP, 1 mg/kg): 16 and 13 and 14
- % Inhibition (ICR-derived mice; IP, 2 mg/kg): 31%
- Number of Writhings Average (ICR-derived mice; IP, 2 mg/kg): 11
- Number of Writhings Individual (ICR-derived mice; IP, 2 mg/kg): 13 and 11 and 8
- % Inhibition (ICR-derived mice; IP, 4 mg/kg): (56) %
- Number of Writhings Average (ICR-derived mice; IP, 4 mg/kg): 7
- Number of Writhings Individual (ICR-derived mice; IP, 4 mg/kg): 2 and 11 and 8
- % Inhibition (ICR-derived mice; IP, 8 mg/kg): (88) %
- Number of Writhings Average (ICR-derived mice; IP, 8 mg/kg): 2
- Number of Writhings Individual (ICR-derived mice; IP, 8 mg/kg): 0 and 4 and 2
- % Inhibition (ICR-derived mice; IP, 16 mg/kg): (69) %
- Number of Writhings Average (ICR-derived mice; IP, 16 mg/kg): 5
- Number of Writhings Individual (ICR-derived mice; IP, 16 mg/kg): 4 and 2 and 9
- % Inhibition (ICR-derived mice; IP, 32 mg/kg): (100) %
- Number of Writhings Average (ICR-derived mice; IP, 32 mg/kg): 0
- Number of Writhings Individual (ICR-derived mice; IP, 32 mg/kg): 0
- Number of Writhings Individual (ICR-derived mice; IP, 64 mg/kg): Died and 0 (2×)
- Died (mortality, animals of group of 3) (ICR-derived mice; IP, 64 mg/kg, 64 mg/kg): 1 of 3 and ⅓ and 1/3 Died
- Number of Writhings Individual (ICR-derived mice; IP, 128 mg/kg): 0 and Died (2×)
- Died (mortality, animals of group of 3) (ICR-derived mice; IP, 128 mg/kg, 128 mg/kg): 2 of 3 and ⅔ and 2/3 Died
- analgesic activity in writhing test (ICR-derived mice; given IP): active
- analgesic activity (≧50% reduction in writhes) (ICR-derived mice; intraperitoneal, doses of 4, 8, 16 and 32 mg/kg): Significant activity
- analgesic activity (≧50% reduction in writhes) (ICR-derived mice; oral administration, 1 to 64 mg/kg): not when given orally; also recorded: not after oral administration
- % Inhibition (ICR-derived mice; oral, 1 mg/kg): 0%
- Number of Writhings Average (ICR-derived mice; oral, 1 mg/kg): 16
- Number of Writhings Individual (ICR-derived mice; oral, 1 mg/kg): 25 and 8 and 14
- % Inhibition (ICR-derived mice; oral, 2 mg/kg): 0%
- Number of Writhings Average (ICR-derived mice; oral, 2 mg/kg): 14
- Number of Writhings Individual (ICR-derived mice; oral, 2 mg/kg): 9 and 21 and 11
- % Inhibition (ICR-derived mice; oral, 4 mg/kg): 0%
- Number of Writhings Average (ICR-derived mice; oral, 4 mg/kg): 14
- Number of Writhings Individual (ICR-derived mice; oral, 4 mg/kg): 9 and 15 and 17
- % Inhibition (ICR-derived mice; oral, 8 mg/kg): 0%
- Number of Writhings Average (ICR-derived mice; oral, 8 mg/kg): 15
- Number of Writhings Individual (ICR-derived mice; oral, 8 mg/kg): 17 and 21 and 6
- % Inhibition (ICR-derived mice; oral, 16 mg/kg): 0%
- Number of Writhings Average (ICR-derived mice; oral, 16 mg/kg): 14
- Number of Writhings Individual (ICR-derived mice; oral, 16 mg/kg): 6 and 17 and 18
- % Inhibition (ICR-derived mice; oral, 32 mg/kg): 0%
- Number of Writhings Average (ICR-derived mice; oral, 32 mg/kg): 15
- Number of Writhings Individual (ICR-derived mice; oral, 32 mg/kg): 12 and 14 and 18
- % Inhibition (ICR-derived mice; oral, 64 mg/kg): 14%
- Number of Writhings Average (ICR-derived mice; oral, 64 mg/kg): 12
- Number of Writhings Individual (ICR-derived mice; oral, 64 mg/kg): 12 and 5 and 18
- Percentage inhibition of radioligand binding, δ-opiate receptor (human δ-opiate receptor): 79%
- Percentage inhibition of radioligand binding, κ-opiate receptor (human κ-opiate receptor): 79%
- Percentage inhibition of radioligand binding, μ-opiate receptor (human μ-opiate receptor): 98%
- test animals exhibiting an increase in respiratory depth (ICR mice [2]; 128 mg/kg IP, Example 17): 3 of 3
- test animals exhibiting slight anoxia (ICR mice [2]; 128 mg/kg IP, Example 17): 3 of 3
- test animals exhibiting slight tremors (ICR mice [2]; 128 mg/kg IP, Example 17): 3 of 3
- Straub tail behaviour (ICR mice [2]; Example 17 (writhing and tail-flick studies)): None of the mice given KRS-5-150 exhibited Straub tail behaviour
- Straub tail behaviour (ICR mice [2]; IP, 2 to 64 mg/kg, Example 16): did not exhibit Straub tail behaviour
